Reference: publication PMC8582287 (International journal of antimicrobial agents, 2020)
Entries after “also recorded” stand apart in the source; their conditions may differ. Read-outs that look alike come from different tables or passages of the source.

How the values were obtained:
[1] = tested on: human Ether-à-go-go Related Gene (hERG); conditions: cited from earlier work
pregnant BALB/c mice [2] = assay: Assessment of BKI-interference in pregnancy in non-infected mice; conditions: for Offspring mortality (dead/born pups): 50 mg/kg/day oral gavage for 5 days, follow-up 14 days
[3] = tested on: T. gondii oocyst infection; conditions: pregnant CD1 mice, ref [20]; cited from earlier work
[4] = tested on: zebrafish (Danio rerio) embryos; assay: Zebrafish embryo development test with impact score Si; format: in vivo; conditions: for Embryo toxicity in the zebrafish assay (in words) / Lowest concentration exerting a negative Si: 0.2-50 μM; for Embryo toxicity in the zebrafish assay (in words): 96hpf; for Lowest concentration exerting a negative Si: zebrafish embryos, until 96h post fertilization; for Embryonal alterations observed during BKI-exposure: 24h, representative image
HepG2 (hepatocyte) cells = assay: Cytotoxicity in HepG2 cells, Alamar Blue; format: cell-based, human; conditions: read-out: Cytotoxicity CC50 HEP-G2, 48h
N. caninum tachyzoites [5] = conditions: read-out: Proliferation EC50 N.caninum, ref [25]; cited from earlier work
[6] = tested on: human foreskin fibroblasts (HFF); assay: Cytotoxicity in human foreskin fibroblasts, Alamar blue; format: cell-based; conditions: read-out: Cytotoxicity CC50 HFF, 3 days, 0.0009-20 μM
[7] = tested on: CRL-8155 (lymphocyte) cells; assay: Cytotoxicity in CRL-8155 cells, Alamar Blue; format: cell-based, human; conditions: read-out: Cytotoxicity CC50 CRL-8155, 48h
pregnant BALB/c mice [8] = conditions: mouse, in vivo, 50 mg/kg/day
N. caninum tachyzoites [9] = conditions: read-out: Proliferation EC50 N.caninum
rats = conditions: when dosed in rats; no reference given; cited from earlier work
[10] = tested on: Neospora-infected pregnant mice; conditions: 50mg/kg, ref [23]; cited from earlier work
[11] = 50 mg/kg/day oral gavage in corn oil for 5 days

| Structure (SMILES) | Offspring mortality (dead/born pups) (pregnant BALB/c mice [2]) | Embryo toxicity in the zebrafish assay (in words) [4] | CC50 (HepG2 (hepatocyte) cells) | CC50 [6] | CC50 [7] | Fertility (pregnant/mated females) (pregnant BALB/c mice [2]; [11]) | EC50 (N. caninum tachyzoites [9]) | also measured |
| --- | --- | --- | --- | --- | --- | --- | --- | --- |
| CCOc1ccc2cc(-c3nn(CC4CCN(C)CC4)c4ncnc(N)c34)ccc2c1 [BKI-1294] | 0/27 | very low embryo toxicity | > 40 µM | > 20 µM | > 40 µM | – | – | hERG inhibition in vitro ([1]; ref [24]): inhibited; Offspring survival [3]: 100%; Lowest concentration exerting a negative Si [4]: ≥ 40 µM; Lowest concentration exerting a negative Si ([4]; listed as 1294): 40 µM; EC50 (N. caninum tachyzoites [5]): 0.04 µM; Overall number of pups born (pregnant BALB/c mice [8]): 27; Pups/dams (pregnant BALB/c mice [8]; po): 27/4 |
| CCOc1ccc2cc(-c3nn(CC4CCN(C)CC4)c4ncnc(N)c34)ccc2n1 [BKI-1369] | 0/31 | very low embryo toxicity | > 80 µM | > 20 µM | > 80 µM | 5/6 | 0.035 µM | Pups/dams (pregnant BALB/c mice [2]; [11]): 31/5 |
| CCOc1ccc2cc(-c3nn(C(C)(C)C)c(N)c3C(N)=O)cnc2c1 [BKI-1517] | – | high toxicity at all concentrations | > 40 µM | > 20 µM | > 40 µM | ^*2/7 | 0.269 µM | hERG inhibition in vitro ([1]; no reference given): did not inhibit; Embryonal alterations observed during BKI-exposure ([4]; 20 μM): tail curvature; also recorded: half-hatched embryo; Embryonal alterations observed during BKI-exposure ([4]; 50 μM): pericardial edema; Lowest concentration exerting a negative Si ([4]; listed as 1517): 0,2 μM; Lowest concentration exerting a negative Si ([4]; listed as -1517): 0.2 µM; Change in mean arterial pressure (rats): significant change in mean arterial pressure; Neonatal mortality [10]: 100% |
